This data set concerns CCRIS mutagenicity, Ames/micronucleus/aberration tests. Description: CCRIS mutagenicity studies.
Where [1] appears, read: Test System: AMES SALMONELLA TYPHIMURIUM, Strain/Indicator: TA98, Metabolic Activation: NONE, Method: STANDARD PLATE.
The mark [2] stands for this setting: Test System: AMES SALMONELLA TYPHIMURIUM, Strain/Indicator: TA100, Metabolic Activation: NONE, Method: STANDARD PLATE.
[3] abbreviates: Test System: AMES SALMONELLA TYPHIMURIUM, Strain/Indicator: TA1535, Metabolic Activation: NONE, Method: STANDARD PLATE.
Where [4] appears, read: Test System: AMES SALMONELLA TYPHIMURIUM, Strain/Indicator: TA1537, Metabolic Activation: NONE, Method: STANDARD PLATE.
Setting [5] is: Test System: E. COLI, Strain/Indicator: WP2 UVRA, Metabolic Activation: NONE, Method: STANDARD PLATE.

The values that follow come from PubChem BioAssay AID1259407 (Chemical Carcinogenesis Research Information System (CCRIS), 2018).

The source made the active and inactive calls. How the calls were made is not given here.

On to `N=C1C=CC(=C(c2ccc(N)cc2)c2ccc(N)cc2)C=C1`, for which the mutagenic call by setting is: (End Point: IN VITRO CHROMOSOMAL ABERRATIONS, Test System: CHO CELLS, Metabolic Activation: NONE) “inactive; negative”; (End Point: IN VITRO CHROMOSOMAL ABERRATIONS, Test System: CHO CELLS, Metabolic Activation: RAT, LIVER, S-9, AROCLOR 1254) “inactive; negative”; (Test System: AMES SALMONELLA TYPHIMURIUM, Strain/Indicator: TA97, Metabolic Activation: NONE, Method: STANDARD PLATE) “inactive; negative”; (Test System: AMES SALMONELLA TYPHIMURIUM, Strain/Indicator: TA97, Metabolic Activation: RAT, LIVER, S-9, AROCLOR 1254, Method: STANDARD PLATE) “active; positive”; (Test System: AMES SALMONELLA TYPHIMURIUM, Strain/Indicator: TA97A, Metabolic Activation: NONE, Method: STANDARD PLATE) “inactive; negative”; (Test System: AMES SALMONELLA TYPHIMURIUM, Strain/Indicator: TA97A, Metabolic Activation: RAT, LIVER, S-9, AROCLOR 1254, Method: STANDARD PLATE) “inactive; negative”. Also, the mutagenic call was “active; positive” (Test System: AMES SALMONELLA TYPHIMURIUM, Strain/Indicator: TA98, Metabolic Activation: HAMSTER, LIVER, S-9, AROCLOR 1254, Method: STANDARD PLATE); “active; positive” under setting [1]; “active; positive” (Test System: AMES SALMONELLA TYPHIMURIUM, Strain/Indicator: TA98, Metabolic Activation: RAT, LIVER, S-9, AROCLOR 1254, Method: STANDARD PLATE); “active; positive” (Test System: AMES SALMONELLA TYPHIMURIUM, Strain/Indicator: TA100, Metabolic Activation: HAMSTER, LIVER, S-9, AROCLOR 1254, Method: STANDARD PLATE); “active; positive” under setting [2]; “active; positive” (Test System: AMES SALMONELLA TYPHIMURIUM, Strain/Indicator: TA100, Metabolic Activation: RAT, LIVER, S-9, AROCLOR 1254, Method: STANDARD PLATE). Further, the mutagenic call (Test System: AMES SALMONELLA TYPHIMURIUM, Strain/Indicator: TA1535, Metabolic Activation: HAMSTER, LIVER, S-9, AROCLOR 1254, Method: STANDARD PLATE) is “inactive; negative”; the mutagenic call under setting [3] was “inactive; negative”; the mutagenic call (Test System: AMES SALMONELLA TYPHIMURIUM, Strain/Indicator: TA1535, Metabolic Activation: RAT, LIVER, S-9, AROCLOR 1254, Method: STANDARD PLATE) is “inactive; negative”; the mutagenic call (Test System: AMES SALMONELLA TYPHIMURIUM, Strain/Indicator: TA1537, Metabolic Activation: HAMSTER, LIVER, S-9, AROCLOR 1254, Method: STANDARD PLATE) is “inactive; negative”; the mutagenic call under setting [4] was “inactive; negative”; the mutagenic call (Test System: AMES SALMONELLA TYPHIMURIUM, Strain/Indicator: TA1537, Metabolic Activation: RAT, LIVER, S-9, AROCLOR 1254, Method: STANDARD PLATE) is “inactive; negative”. Also, the mutagenic call (Test System: E. COLI, Strain/Indicator: WP2 UVRA, Metabolic Activation: HAMSTER, LIVER, S-9, AROCLOR 1254, Method: STANDARD PLATE) is “inactive; negative”; the mutagenic call (Test System: E. COLI, Strain/Indicator: WP2 UVRA, Metabolic Activation: HAMSTER, LIVER, S-9, Method: STANDARD PLATE) was “inactive; negative”; the mutagenic call (Test System: E. COLI, Strain/Indicator: WP2 UVRA, Metabolic Activation: MOUSE, LIVER, S-9, AROCLOR 1254, Method: STANDARD PLATE) is “inactive; negative”; the mutagenic call (Test System: E. COLI, Strain/Indicator: WP2 UVRA, Metabolic Activation: MOUSE, LIVER, S-9, Method: STANDARD PLATE) was “inactive; negative”; the mutagenic call under setting [5] was “inactive; negative”; the mutagenic call (Test System: E. COLI, Strain/Indicator: WP2 UVRA, Metabolic Activation: RAT, LIVER, S-9, AROCLOR 1254, Method: STANDARD PLATE) is “inactive; negative”. The mutagenic call reads like this: (Test System: E. COLI, Strain/Indicator: WP2 UVRA, Metabolic Activation: RAT, LIVER, S-9, Method: STANDARD PLATE) “inactive; negative”; (Test System: MOUSE LYMPHOMA, Strain/Indicator: L5178Y (TK+/TK-), Metabolic Activation: NONE, Method: SUSPENSION/PLATE) “active; positive”; (Test System: MOUSE LYMPHOMA, Strain/Indicator: L5178Y (TK+/TK-), Metabolic Activation: RAT, LIVER, S-9, AROCLOR 1254, Method: SUSPENSION/PLATE) “active; positive”.

With `O=C1CCCCC1=O`, the mutagenic call under setting [2] was “active; positive”.

With `NC[C@H]1CCCN1.O=C([O-])C1(C(=O)[O-])CCC1.[Pt+2]`, the mutagenic call is, setting by setting: under setting [1], “inactive; negative”; (Test System: AMES SALMONELLA TYPHIMURIUM, Strain/Indicator: TA98, Metabolic Activation: RAT, LIVER, S-9, PHENOBARBITAL AND 5,6-BENZOFLAVONE, Method: STANDARD PLATE) “inactive; negative”; under setting [2], “inactive; negative”; (Test System: AMES SALMONELLA TYPHIMURIUM, Strain/Indicator: TA100, Metabolic Activation: RAT, LIVER, S-9, PHENOBARBITAL AND 5,6-BENZOFLAVONE, Method: STANDARD PLATE) “inactive; negative”; under setting [3], “inactive; negative”; (Test System: AMES SALMONELLA TYPHIMURIUM, Strain/Indicator: TA1535, Metabolic Activation: RAT, LIVER, S-9, PHENOBARBITAL AND 5,6-BENZOFLAVONE, Method: STANDARD PLATE) “inactive; negative”. In addition, the mutagenic call was “inactive; negative” under setting [4]; “inactive; negative” (Test System: AMES SALMONELLA TYPHIMURIUM, Strain/Indicator: TA1537, Metabolic Activation: RAT, LIVER, S-9, PHENOBARBITAL AND 5,6-BENZOFLAVONE, Method: STANDARD PLATE); “inactive; negative” under setting [5]; “inactive; negative” (Test System: E. COLI, Strain/Indicator: WP2 UVRA, Metabolic Activation: RAT, LIVER, S-9, PHENOBARBITAL AND 5,6-BENZOFLAVONE, Method: STANDARD PLATE).

Regarding `c1ccc(CN2CCN=N2)cc1`, the mutagenic call under setting [3] is “active; positive”.

In the case of `CCCCCCCCC/C=C/CC1CC(=O)OC1=O` (stereo not drawn), the mutagenic call was “inactive; negative” (Test System: AMES SALMONELLA TYPHIMURIUM, Strain/Indicator: TA98, Metabolic Activation: HAMSTER, LIVER, S-9, AROCLOR 1254 (10%), Method: PREINCUBATION); “inactive; negative” (Test System: AMES SALMONELLA TYPHIMURIUM, Strain/Indicator: TA98, Metabolic Activation: NONE, Method: PREINCUBATION); “inactive; negative” (Test System: AMES SALMONELLA TYPHIMURIUM, Strain/Indicator: TA98, Metabolic Activation: RAT, LIVER, S-9, AROCLOR 1254 (10%), Method: PREINCUBATION); “inactive; negative” (Test System: AMES SALMONELLA TYPHIMURIUM, Strain/Indicator: TA100, Metabolic Activation: HAMSTER, LIVER, S-9, AROCLOR 1254 (10%), Method: PREINCUBATION); “inactive; negative” (Test System: AMES SALMONELLA TYPHIMURIUM, Strain/Indicator: TA100, Metabolic Activation: NONE, Method: PREINCUBATION); “inactive; negative” (Test System: AMES SALMONELLA TYPHIMURIUM, Strain/Indicator: TA100, Metabolic Activation: RAT, LIVER, S-9, AROCLOR 1254 (10%), Method: PREINCUBATION). The mutagenic call is “inactive; negative” (Test System: AMES SALMONELLA TYPHIMURIUM, Strain/Indicator: TA1535, Metabolic Activation: HAMSTER, LIVER, S-9, AROCLOR 1254 (10%), Method: PREINCUBATION); “inactive; negative” (Test System: AMES SALMONELLA TYPHIMURIUM, Strain/Indicator: TA1535, Metabolic Activation: NONE, Method: PREINCUBATION); “inactive; negative” (Test System: AMES SALMONELLA TYPHIMURIUM, Strain/Indicator: TA1535, Metabolic Activation: RAT, LIVER, S-9, AROCLOR 1254 (10%), Method: PREINCUBATION); “inactive; negative” (Test System: AMES SALMONELLA TYPHIMURIUM, Strain/Indicator: TA1537, Metabolic Activation: HAMSTER, LIVER, S-9, AROCLOR 1254 (10%), Method: PREINCUBATION); “inactive; negative” (Test System: AMES SALMONELLA TYPHIMURIUM, Strain/Indicator: TA1537, Metabolic Activation: NONE, Method: PREINCUBATION); “inactive; negative” (Test System: AMES SALMONELLA TYPHIMURIUM, Strain/Indicator: TA1537, Metabolic Activation: RAT, LIVER, S-9, AROCLOR 1254 (10%), Method: PREINCUBATION).

In the case of `CC(Br)(CBr)COP(=O)(OCC(C)(Br)CBr)OCC(C)(Br)CBr` (stereo not drawn), the mutagenic call runs as follows: (Test System: AMES SALMONELLA TYPHIMURIUM, Strain/Indicator: TA100, Metabolic Activation: RAT, LIVER, MICROSOMES, PHENOBARBITAL, Method: PREINCUBATION) “inactive; negative”; (Test System: AMES SALMONELLA TYPHIMURIUM, Strain/Indicator: TA100, Metabolic Activation: RAT, LIVER, MICROSOMES, Method: PREINCUBATION) “inactive; negative”.
